# According to patent US20230102590A1, “USE OF POLYETHER COMPOUND” (Senju Pharmaceutical Co., Ltd., priority 2020, published 2023):
# Like-named read-outs stand apart in the source and are kept apart here.
# How the values were obtained:
# [1] = Basic solubility at 25° C. in ethanol, PEG 400, propylene glycol (PG) and buffer solution; solubility ratio non-aqueous solvent / buffer solution; conditions: for Solubility ratio of solvent with respect to buffer solution Ethanol/buffer solution / Solubility ratio of solvent with respect to buffer solution PEG400/buffer solution / Solubility ratio of solvent with respect to buffer solution PG/buffer solution: buffer pH 7.0 (pH 7.4 for cabozantinib and telmisartan; pH 6.0 for rebamipide); for Solubility, Buffer solution: phosphate buffer pH 7.0
# Procedure: In this regard, the buffer solution had the following composition: • 0.2% sodium hydrogen phosphate hydrate • 0.3% sodium dihydrogen phosphate hydrate • sodium hydroxide and hydrochloric acid (suitable amount was added to adjust the pH to 7.0; however, pH was adjusted to 7.4 for cabozantinib and telmisartan).
# However, the following composition was used for rebamipide instead: • 0.05% sodium hydrogen phosphate hydrate • 0.45% sodium dihydrogen phosphate hydrate • sodium hydroxide and hydrochloric acid (suitable amount was added to adjust the pH to 6.0).
# Each compound was measured in the same manner described above. In the Table, the molecular weight and Log P values are reference values (or values calculated from reference values).
# [2] = Procedure: Fujifilm Wako Pure Chemical
# The poorly soluble compound content in the recovered filtrate was measured by liquid chromatography specified below (Shimadzu (Kyoto), high performance liquid chromatograph Prominence).
# As the standard product of triamcinolone acetonide, a reagent from the Pharmaceutical and Medical Device Regulatory Science Society of Japan (Japan) was used. • 50 μL of sample solution and standard solution was measured by liquid chromatography under the following conditions.
# Column temperature: constant temperature of about 40° C. Mobile phase A: 0.1% trifluoroacetic acid/10% acetonitrile solution Mobile phase B: 0.1% trifluoroacetic acid/90% acetonitrile solution Delivery of mobile phase: the ratio of mixture of mobile phase A and mobile phase B was changed as follows to control the linear concentration gradient.
# Detergent: 50% acetonitrile solution Flow rate: 1.0 mL/min Temperature within autosampler: 5° C.
# The following conditions were tested as additives to a poorly soluble compound
# wherein SA+B=solubility of a poorly soluble compound in a composition comprising poloxamer 407 and PEG 4000 SB=solubility of a poorly soluble compound in a composition comprising PEG 4000, but not poloxamer 407 SA=solubility of a poorly soluble compound in a composition comprising poloxamer 407, but not PEG 4000 S0=solubility of a poorly soluble compound in a composition that comprises neither poloxamer 407 nor PEG 4000.
# The solubility in a composition of PEG and poloxamer was measured in the same manner described above for additional compounds.
# For cabozantinib and telmisartan, the pH of the aqueous solution with the base composition described above was changed to 7.4. For rebamipide, the aqueous solution with the base composition was as follow. • 0.05% sodium hydrogen phosphate hydrate • 0.45% sodium dihydrogen phosphate hydrate • sodium hydroxide and hydrochloric acid (suitable amount was added to adjust the pH to 6.0)
# Additional compounds were measured in the same manner described above.
# Cabozantinib and telmisartan were tested with a solution adjusted to a pH of 7.4. Rebamipide was tested with a solution adjusted to a pH of 6.0. Other compounds were tested with a solution adjusted to a pH of 7.0.
Solubility ratio of solvent with respect to buffer solution Ethanol/buffer solution ([1]; 25° C.),Solubility ratio of solvent with respect to buffer solution PEG400/buffer solution ([1]; 25° C.),Solubility ratio of solvent with respect to buffer solution PG/buffer solution ([1]; 25° C.),Solubility scale factor at 5° C. 30% PEG 4000/10% poloxamer 407 [2],Solubility scale factor at 15° C. 30% PEG 4000/10% poloxamer 407 [2],"Solubility, Ethanol ([1]; 25° C.)","Solubility, PEG400 ([1]; 25° C.)","Solubility, PG (propylene glycol) ([1]; 25° C.)","Solubility, Buffer solution ([1]; 25° C.)","Solubility, Ethanol [1]",Compound,state of the test composition [2]
1043.62,876.48,680.05,7.32,7.52,,,,,,CC1(C)O[C@@H]2C[C@H]3[C@@H]4CCC5=CC(=O)C=C[C@]5(C)[C@@]4(F)[C@@H](O)C[C@]3(C)[C@]2(C(=O)CO)O1 [Triamsinolone acetonide],
309.31,1745.29,200.23,15.19,14.31,0.2423%,1.367%,0.1569%,0.0007834%,,COC1=CC(=O)C[C@@H](C)[C@]12Oc1c(Cl)c(OC)cc(OC)c1C2=O [Griseofulvin],
4781694.68,7210696.23,4473505.75,2355.97,450.47,,,,,,CNC(=O)c1cc(Oc2ccc(NC(=O)Nc3ccc(Cl)c(C(F)(F)F)c3)cc2)ccn1 [Soraf ? nib],
,,,7.45,7.10,,,,0.008221%,,C[C@@H]1C[C@H]2[C@@H]3CCC4=CC(=O)C=C[C@]4(C)[C@@]3(F)[C@@H](O)C[C@]2(C)[C@@]1(O)C(=O)CO [dexamethasone],
,,,,,,,,below the detection limit,,CCC(C)n1ncn(-c2ccc(N3CCN(c4ccc(OCC5COC(Cn6cncn6)(c6ccc(Cl)cc6Cl)O5)cc4)CC3)cc2)c1=O (stereo not drawn) [Itraconazole],
745.67,5882.38,1401.17,24.46,12.41,,,,,0.007308%,COC(=O)Nc1nc2cc(C(=O)c3ccc(F)cc3)ccc2[nH]1 [Flubendazole],
270.67,143.78,174.69,7.59,6.73,,1.031%,1.253%,0.007171%,,CC1(C)O[C@@H]2C[C@H]3[C@@H]4CCC5=CC(=O)C=C[C@]5(C)[C@H]4[C@@H](O)C[C@]3(C)[C@]2(C(=O)CO)O1 [Desonide],
,,,,,,,,,,Brc1cccc2c1oc1ccccc12 [4-bromodibenzofuran],converted into gel
,,,,,10.24%,,,,,Cc1ccc(-c2cc(C(F)(F)F)nn2-c2ccc(S(N)(=O)=O)cc2)cc1 [Celecoxib],
,,,,,,,,0.001426%,,CC1(C)O[C@@H]2C[C@H]3[C@@H]4CCC5=CC(=O)C=C[C@]5(C)[C@@]4(F)[C@@H](O)C[C@]3(C)[C@]2(C(=O)CO)O1 [triamcinolone acetonide],

Compound,Solubility ratio of solvent with respect to buffer solution Ethanol/buffer solution ([1]; 25° C.),Solubility ratio of solvent with respect to buffer solution PEG400/buffer solution ([1]; 25° C.),Solubility ratio of solvent with respect to buffer solution PG/buffer solution ([1]; 25° C.),Solubility scale factor at 5° C. 30% PEG 4000/10% poloxamer 407 [2],Solubility scale factor at 15° C. 30% PEG 4000/10% poloxamer 407 [2],"Solubility, Ethanol ([1]; 25° C.)","Solubility, PEG400 ([1]; 25° C.)","Solubility, PG (propylene glycol) ([1]; 25° C.)","Solubility, Buffer solution ([1]; 25° C.)","Solubility, Ethanol [1]",state of the test composition [2]
C=C(C)[C@H]1Cc2c(ccc3c2O[C@@H]2COc4cc(OC)c(OC)cc4[C@@H]2C3=O)O1 [Rotenone],30294.14,368226.98,13159.33,,,,3.314%,0.1184%,,,
